How the values were obtained:
[1] = Characterization of lipid nanoparticles encapsulating Fluc-mRNA prepared from different cap structures; type: physicochemical; details: for Particle size: LNP (YK-009/DSPC/cholesterol/DMG-PEG2000) with Fluc-mRNA transcribed using the named cap analog; for PDI: LNP with Fluc-mRNA transcribed using the named cap analog; for EE: encapsulation efficiency of LNP with Fluc-mRNA transcribed using the named cap analog
Procedure: Cationic lipid YK-009 (Beijing Youcare Kechuang Pharmaceutical Technology Co., Ltd.), DSPC (AVT (Shanghai) Pharmaceutical Technology Co., Ltd.), cholesterol (AVT (Shanghai) Pharmaceutical Technology Co., Ltd.), and DMG-PEG2000 were dissolved in ethanol at a molar ratio of 49:10:39.5:1.5, and the mRNA was diluted in 50 mM citrate buffer (pH=4). The ethanol lipid solution was mixed with the Fluc-mRNA aqueous solution prepared from different cap structures at a volume ratio of 1:3 using a microfluidic device at a flow rate of 10 mL/min to prepare LNPs at a weight ratio of total lipid to mRNA of approximately 15:1.
The resulting liposomes were diluted to 10-fold volume with PBS, and then ultrafiltered with a 300 KDa ultrafiltration tube to remove ethanol. The volume was then fixed to a certain volume with PBS. Finally, the LNPs were filtered through a 0.2 μm sterile filter to obtain an LNP preparation encapsulating Fluc-mRNA using YK-009/DSPC/cholesterol/DMG-PEG2000 (at a molar ratio of 49:10:39.5:1.5).
The particle size and polydispersity index (PDI) were determined by dynamic light scattering using a Malvern laser particle size analyzer. 10 μL of the liposome solution was taken, diluted to 1 mL with RNase-free deionized water, and added to a sample pool. Each sample was measured in triplicate. The measurement conditions were: a scattering angle of 90° and a temperature of 25° C. The encapsulation efficiency of LNPs was determined using the Quant-iT RiboGreen RNA Quantification Kit (Thermo Fisher Scientific, UK) according to the manufacturer's instructions.

[2] = target: T1, DCP2 enzyme (Schizosaccharomyces pombe, UniProt O13828); test: Decapping enzyme stability test; type: biochemical; details: for Decapping rate (%) of DCP2 enzyme: 50 U mRNA decapping enzyme, 37° C., 45 minutes
T1 construct: purchased New England Biolabs
T1 sequence (O13828 1-243 limits assumed): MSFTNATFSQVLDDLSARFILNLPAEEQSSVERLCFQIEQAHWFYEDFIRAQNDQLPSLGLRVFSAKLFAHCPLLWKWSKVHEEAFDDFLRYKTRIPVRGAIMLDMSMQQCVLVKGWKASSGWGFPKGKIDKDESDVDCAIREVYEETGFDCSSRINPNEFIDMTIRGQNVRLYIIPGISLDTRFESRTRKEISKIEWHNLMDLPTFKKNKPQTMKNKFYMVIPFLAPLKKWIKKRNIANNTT
T1 sequence (Q9P805 1-127 partner): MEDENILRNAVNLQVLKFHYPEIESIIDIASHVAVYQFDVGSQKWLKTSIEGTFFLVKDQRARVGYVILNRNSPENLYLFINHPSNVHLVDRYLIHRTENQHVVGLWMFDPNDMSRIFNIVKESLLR
T1 sequence (Q10108 155-180 partner limits assumed): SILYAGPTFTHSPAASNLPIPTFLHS
Procedure: […] of RNA purified by polyacrylamide gel electrophoresis (PAGE) was subjected to an enzymatic reaction with 50 U of mRNA decapping enzyme (New England Biolabs) and 1×MDE buffer at 37° C. for 45 minutes. The enzymatic reactants were subjected to PAGE and stained with SYBR Green II (Lonza), followed by observation of the post-electrophoresis gel image on a Typhoon FLA 7000 (GE Healthcare) instrument. The electrophoresis band intensity ratio of RNA capping to RNA decapping was counted using ImageQuant (GE Healthcare) software, and the decapping rate of the decapping enzyme was calculated.

[3] = tested on: HEK293T cells; test: Translation efficiency of different capped luciferase mRNAs; type: cell-based; details: for Relative fluorescence intensity: HEK293T, 0.5 μg mRNA per well, 24 hours, proportional to translation efficiency; for Multiple of m6A (relative fluorescence intensity): relative to m6A
Procedure: • (1) HEK293T cells were cultured in DMEM medium containing 10% FBS and penicillin/streptomycin at 37° C. with 5% CO2. • (2)Cells in the culture dish were digested and counted, then spread in a 96-well plate at 10,000 cells per well, and cultured overnight until the cells adhered to the wall. • (3) When the cell density reached approximately 80%, transfection was performed by adding 0.5 μg of mRNA sample and Lipofectamine MessengerMAX Transfection Reagent (Invitrogen) per well according to the manufacturer's instructions. • (4) After the transfected cells were cultured at 37° C. with 5% CO2 for 24 hours, the growth medium was removed from the cells to be tested, and the cells were rinsed with PBS. After centrifugation to remove PBS, 50 μL of 1× lysis buffer was added. The cells and all liquid were transferred to a microcentrifuge tube and centrifuged. • (5) 20 μL of sample was taken and added to 100 μL of Dual-Lumi™ II Luciferase Assay Reagent pre-equilibrated to room temperature, and mixed appropriately. • (6) The mixture was incubated at room temperature (approximately 25° C.) for 5 minutes to stabilize the luminescence signal. Chemiluminescence was detected using a multifunctional microplate reader with a function for detecting chemiluminescence, and the data were recorded.
The relative fluorescence intensity is proportional to the translation efficiency of mRNA.

[4] = target: T7 RNA polymerase (Escherichia phage T7, UniProt P00573); test: In vitro transcription yield of mRNA using cap analogs; type: biochemical; details: for Yield per unit template: in vitro transcription, 1 μg DNA template, 37° C., 2 hours
Sequence of T7 RNA polymerase (P00573 whole entry): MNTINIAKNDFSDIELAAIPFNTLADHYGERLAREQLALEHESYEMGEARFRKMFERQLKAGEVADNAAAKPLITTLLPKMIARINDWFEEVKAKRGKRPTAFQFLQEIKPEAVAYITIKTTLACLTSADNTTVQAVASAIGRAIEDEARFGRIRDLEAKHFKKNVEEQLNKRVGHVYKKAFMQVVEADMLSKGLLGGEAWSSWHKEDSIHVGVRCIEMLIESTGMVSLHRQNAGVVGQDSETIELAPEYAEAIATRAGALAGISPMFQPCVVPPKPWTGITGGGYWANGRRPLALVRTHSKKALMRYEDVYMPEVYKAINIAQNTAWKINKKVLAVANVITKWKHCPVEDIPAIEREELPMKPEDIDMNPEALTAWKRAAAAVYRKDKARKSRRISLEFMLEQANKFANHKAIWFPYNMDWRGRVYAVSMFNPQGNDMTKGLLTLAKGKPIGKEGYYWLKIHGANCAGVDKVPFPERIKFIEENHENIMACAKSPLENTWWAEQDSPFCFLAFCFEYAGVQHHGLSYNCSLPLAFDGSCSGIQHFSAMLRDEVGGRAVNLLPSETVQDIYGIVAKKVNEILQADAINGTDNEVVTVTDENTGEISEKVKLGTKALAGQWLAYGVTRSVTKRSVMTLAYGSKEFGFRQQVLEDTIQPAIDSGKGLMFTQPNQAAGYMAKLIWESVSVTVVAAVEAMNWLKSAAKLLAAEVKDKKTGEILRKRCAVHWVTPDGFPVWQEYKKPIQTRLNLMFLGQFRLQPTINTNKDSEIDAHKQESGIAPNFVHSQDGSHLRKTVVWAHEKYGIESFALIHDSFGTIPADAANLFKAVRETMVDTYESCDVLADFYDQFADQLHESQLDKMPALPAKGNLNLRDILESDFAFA
Procedure: • (1) Capping synthesis using cap analogs
The plasmid was first linearized with plasmid linearizing enzyme, and then the linearized plasmid was purified. • (2) In vitro transcription and synthesis of mRNA
During the experiment, the volume of materials required for the system was first calculated, and then sample addition was conducted. The system was first added with sterile enzyme-free water, followed by the sequential addition of 10× buffer, NTPs, and cap analogs, mixed well, and gently centrifuged. Nuclease inhibitors, inorganic pyrophosphatase, T7RNA polymerase, and linearized DNA templates were then added thereto. The system was mixed well, gently centrifuged, and incubated at 37° C. After 2 hours of incubation, the system was added with 1 U of DNase I and incubated at 37° C. for another 30 minutes. The mRNA precipitate was then washed with 75% ethanol, and after the ethanol was briefly evaporated to dryness, the mRNA was redissolved in sterile enzyme-free water. • (3) The transcription product was purified, and the in vitro transcription yield of mRNA was recorded. • (4) The obtained mRNA was subjected to an annealing reaction with a probe.

Row | Compound | Particle size [1] | PDI [1] | EE [1] | Decapping rate (%) of DCP2 enzyme [2] | Decrease relative to N-7113 (decapping rate) [2] | Relative fluorescence intensity [3] | Multiple of m6A (relative fluorescence intensity) [3] | Yield per unit template [4] | Increase relative to 5227 (in vitro transcription yield) [4] | also measured
1 | CO[C@@H]1[C@H](OP(=O)(O)OC[C@H]2O[C@@H](n3cnc4c(=O)[nH]c(N)nc43)[C@H](O)[C@@H]2O)[C@@H](COP(=O)(O)OP(=O)(O)OP(=O)(O)OC[C@H]2OC([n+]3cn(C)c4c(=O)[nH]c(N)nc43)[C@H](O)[C@@H](O)[C@@H]2O)O[C@H]1n1cnc2c(N)ncnc21 (stereo partly shown) [YK-CAP-101] | 75.45 nm | 0.043 | 93.4% | 32.4% | 11.4% | 0.22 | 0.6 | 32.5 µg | −75.8% | 
2 | CO[C@@H]1[C@H](OP(=O)(O)OC[C@H]2O[C@@H](n3cnc4c(=O)[nH]c(N)nc43)[C@H](O)[C@@H]2O)[C@@H](COP(=O)(O)OP(=O)(O)OP(=O)(O)OC[C@H]2O[C@@H]([n+]3cn(C)c4c(=O)[nH]c(N)nc43)[C@H](O)[C@]2(C)NC(C)=O)O[C@H]1n1cnc2c(N)ncnc21 [YK-CAP-106] | 68.24 nm | 0.048 | 97.1% | 17.3% | 26.5% | 1.53 | 4.0 | 155.5 µg | 15.9% | 
3 | COC(C)[C@H]1[C@@H](O)[C@H]([n+]2cn(C)c3c(=O)[nH]c(N)nc32)O[C@@H]1COP(=O)(O)OP(=O)(O)OP(=O)(O)OC[C@H]1O[C@@H](n2cnc3c(N)ncnc32)[C@H](OC)[C@@H]1OP(=O)(O)OC[C@H]1O[C@@H](n2cnc3c(=O)[nH]c(N)nc32)[C@H](O)[C@@H]1O (stereo partly shown) [YK-CAP-107] | 78.42 nm | 0.053 | 96.3% | 11.5% | 32.3% | 1.62 | 4.3 | 170.7 µg | 27.2% | 
4 | CO[C@@H]1[C@H](OP(=O)(O)OC[C@H]2O[C@@H](n3cnc4c(=O)[nH]c(N)nc43)[C@H](O)[C@@H]2O)[C@@H](COP(=O)(O)OP(=O)(O)OP(=O)(O)OC[C@H]2O[C@@H]([n+]3cn(C)c4c(=O)[nH]c(N)nc43)[C@H](O)[C@@H]2C(C)NC(C)=O)O[C@H]1n1cnc2c(N)ncnc21 (stereo partly shown) [YK-CAP-108] | 83.13 nm | 0.023 | 96.4% | 16.3% | 27.5% | 1.43 | 3.8 | 151.8 µg | 13.1% | 
5 | CO[C@@H]1[C@H](OP(=O)(O)OC[C@H]2O[C@@H](n3cnc4c(=O)[nH]c(N)nc43)[C@H](O)[C@@H]2O)[C@@H](COP(=O)(O)OP(=O)(O)OP(=O)(O)OC[C@H]2O[C@@H]([n+]3cn(C)c4c(=O)[nH]c(N)nc43)[C@H](O)[C@@H]2C(C)F)O[C@H]1n1cnc2c(N)ncnc21 (stereo partly shown) [YK-CAP-109] | 86.35 nm | 0.035 | 97.2% | 17.3% | 26.5% | 1.53 | 4.0 | 168.1 µg | 25.3% | 
6 | CO[C@@H]1[C@H](OP(=O)(O)OC[C@H]2O[C@@H](n3cnc4c(=O)[nH]c(N)nc43)[C@H](O)[C@@H]2O)[C@@H](COP(=O)(O)OP(=O)(O)OP(=O)(O)OC[C@H]2O[C@@H]([n+]3cn(C)c4c(=O)[nH]c(N)nc43)[C@H](O)[C@@H]2C(F)F)O[C@H]1n1cnc2c(N)ncnc21 [YK-CAP-110] | 69.64 nm | 0.033 | 97.7% | 10.2% | 33.6% | 1.95 | 5.1 | 172.1 µg | 28.2% | Decapping rate lower than that of HN3002 ([2]; relative to HN3002): 13.1%; Decapping rate lower than that of YK-CAP-101 ([2]; relative to YK-CAP-101): 22.2%; Decapping rate lower than that of YK-CAP-102 ([2]; relative to YK-CAP-102): 31.0%; Decapping rate lower than that of YK-CAP-103 ([2]; relative to YK-CAP-103): 26.3%; Decapping rate lower than that of YK-CAP-104 ([2]; relative to YK-CAP-104): 35.9%; Decapping rate lower than that of YK-CAP-105 ([2]; relative to YK-CAP-105): 23.7%; Decapping rate lower than that of compound 14 ([2]; relative to compound 14): 16.6%; Decapping rate lower than that of m6A ([2]; relative to m6A): 23.6%; Relative fluorescence intensity, times that of HN3002 ([3]; relative to HN3002): 1.7 times; Relative fluorescence intensity, times that of N-7113 ([3]; relative to N-7113): 1.9 times; Relative fluorescence intensity (translation efficiency), times that of YK-CAP-101 ([3]; relative to YK-CAP-101): 8.9 times; Relative fluorescence intensity, times that of YK-CAP-102 ([3]; relative to YK-CAP-102): 5.7 times; Relative fluorescence intensity, times that of YK-CAP-103 ([3]; relative to YK-CAP-103): 2.5 times; Relative fluorescence intensity, times that of YK-CAP-104 ([3]; relative to YK-CAP-104): 2.4 times; Relative fluorescence intensity, times that of YK-CAP-105 ([3]; relative to YK-CAP-105): 2.7 times; Relative fluorescence intensity, times that of compound 14 ([3]; relative to compound 14): 1.7 times
